This assay relates to blood of a crab-eating macaque. Nature of the assay: Degree of coagulation of blood with coagulating agents (autologous blood clot formation). As to conditions: blood in catheter, incubated 24 hours at 37° C., versus blood coagulated alone. The method, then:
As coagulating agents, ADP and thrombin were used to examine the degree of coagulation. ADP was used at concentrations of 30 and 100 μg/ml (without thrombin at both concentrations), and thrombin at concentrations of 0.5 and 10% (w/v) (without ADP at both concentrations). Blood was drawn from the ventral tail artery of a crab-eating macaque, and was placed into a catheter with or without adding a coagulating agent, incubated for 24 hours at 37° C., and then pushed out to observe the condition of coagulation. As control was used a sample to which neither of the coagulating agents was added (blood which was coagulated alone). The results were shown in the left panel of FIG. 3. […] Next, a blood clot which was obtained by incubating blood for 24 hours at 37° C. with 100 μg of ADP and 10% (w/v) of thrombin was immersed in a povidone-iodine solution, followed by X-ray photography. As shown in the right panel of FIG. 3, there was observed a shade corresponding to the blood clot, allowing one to identify the location of a blood clot be means of an X-ray photographic apparatus.

The text below walks through data of patent US20080295189A1, “Construction of Arterial Occlusive Disease Animal Model” (JAPAN HEALTH SCIENCES FOUNDATION, priority 2004, published 2008).

With `Nc1ncnc2c1ncn2[C@@H]1O[C@H](COP(=O)(O)OP(=O)(O)O)[C@@H](O)[C@H]1O` [ADP, adenosine diphosphate], where the note is “ADP 30 and 100 μg/ml without thrombin”, the condition of coagulation entry is on record as “the higher concentration of ADP, the better coagulation took place”.
Turning to Thrombin, the condition of coagulation result (thrombin 0.5 and 10% (w/v) without ADP) is “comparable coagulation at both 0.5 and 10% (w/v)”.
